Assay [1] deals with Bacillus subtilis. Put plainly: Induction of membrane associated proteins mislocalization in Bacillus subtilis subsp. subtilis str. 168 assessed as reduction in GFP-MinD protein localization by fluorescence assay. The class given is functional, organism-based.
Assay [2] has as its system Bacillus subtilis. Nature of the assay: Protonophore activity in Bacillus subtilis subsp. subtilis str. 168 assessed as induction of rapid equlibration of delta-pH at 30 uM. The assay is classed as functional, organism-based.
Assay [3] relates to Bacillus subtilis. Nature of the assay: Protonophore activity in Bacillus subtilis subsp. subtilis str. 168 assessed as induction of rapid equlibration of delta-pH at 1 times MIC. The assay is classed as functional, organism-based.
The subject of assay [4] is C2C12. Put plainly: Induction of membrane disruption in mouse C2C12 cells assessed as maximum increase in oxygen consumption rate at 30 uM. The class given is functional, cell-based.
For assay [5], the system named is Bacillus subtilis. Put plainly: Increase in bacterial membrane permeability in Bacillus subtilis subsp. subtilis str. 168 at 1 times MIC pre-treated for 5 mins and measured 30 mins post dye addition by propidium iodide dye based flow cytometry. The assay is classed as functional, organism-based. For orientation: Flow cytometry measures light scatter and fluorescence of single cells or particles in a stream.

In assay [6] the test system is Bacillus subtilis. Nature of the assay: Induction of transmembrane potential loss in Bacillus subtilis subsp. subtilis str. 168 at 1 times MIC pre-treated for 5 mins and measured 15 mins post dye addition by DiOC2 dye based flow cytometry. The class given is functional, organism-based.
Assay [7] deals with Bacillus subtilis. Nature of the assay: Antimicrobial activity against Bacillus subtilis subsp. subtilis str. 168 after 18 hrs by macro-dilution method. The class given is functional. Conditions: subsp. subtilis str. 168, 18 h.
The test system of assay [8] is C2C12. Nature of the assay: Induction of membrane disruption in mouse C2C12 cells assessed as maximum increase in oxygen consumption rate at 0.6 uM. The assay is classed as functional, cell-based.
In assay [9] the test system is C2C12. Nature of the assay: Induction of membrane disruption in mouse C2C12 cells assessed as increase in oxygen consumption rate at 0.1 to 1.2 uM. The class given is functional, cell-based.
For assay [10], the system named is Bacillus subtilis. Nature of the assay: Induction of transmembrane potential loss in Bacillus subtilis subsp. subtilis str. 168 assessed as lambda575/lambda530 fluorescence emission intensity ratio at 1 times MIC pre-treated for 5 mins and measured 15 mins post dye addition by DiOC2 dye based flow cytometry. The class given is functional.
Assay [11] deals with C2C12. Put plainly: Induction of membrane disruption in mouse C2C12 cells assessed as change in oxygen consumption rate. The class given is functional, cell-based.
The test system of assay [12] is Bacillus subtilis. Nature of the assay: Induction of transmembrane potential loss in Bacillus subtilis subsp. subtilis str. 168 assessed as lambda575/lambda530 fluorescence emission intensity ratio at 1 times MIC pre-treated for 20 mins and measured 15 mins post dye addition by DiOC2 dye based flow cytometry (reference value: 0.257 +/- 0.003 no unit). The assay is classed as functional.

In brackets after ≈: the same amount, converted by molar mass. Activity calls are given as the source filed them. No cut-off for these calls is given here.

This note sets out measurements from ChEMBL document CHEMBL3217646, “Inhibitors of bacterial tubulin target bacterial membranes in vivo” (Medchemcomm, 2013).

The term MIC denotes the lowest concentration found to suppress growth. Read a low MIC as a more susceptible organism.

Take `Oc1ccc(Cl)cc1Cc1cc(Cl)cc(Cc2cc(Cl)ccc2O)c1O`: the result in assay [1], in [2], in assay [4] and in assay [6] was Active. In addition, the outcome in assay [3] and in assay [5] was inactive. In assay [7], this compound gave an MIC of 0.16 µM (≈ 0.0656 µg/mL).
Turning to `N#CC(C#N)=NNc1cccc(Cl)c1` [CARBONYL CYANIDE M-CHLOROPHENYLHYDRAZONE], the result in [1], in assay [3], in assay [8] and in assay [9] was Active. Further, the result in [5] was inactive. Moreover, in [10], the Ratio worked out at 0.045. Moreover, it took 10 µM (≈ 2.05 µg/mL) to inhibit growth in [7] (MIC).
Regarding `CC(C)c1c(O)ccc2c1CC[C@H]1C(C)(C)CCC[C@]21C` [TOTAROL], the result in [1], in assay [5] and in assay [6] was Active. Also, the outcome in assay [3] and in [11] was inactive. Besides, in [7], the lowest concentration to inhibit growth (MIC) was 2.5 µM (≈ 0.716 µg/mL).
Regarding `C[n+]1cc2c3c(ccc2c2ccc4cc5c(cc4c21)OCO5)OCO3` [SANGUINARIUM], the outcome in assay [3] was inactive. For the same compound, the outcome in [5] and in assay [6] was Active. The compound further had a minimal inhibitory concentration (MIC) in [7] of 10 µM.
`COC(=O)CC1Cc2cc3cc(OC)c(-c4c(OC)cc5cc6c(c(O)c5c4O)C(=O)OC(CC(=O)OC)C6)c(O)c3c(O)c2C(=O)O1` (stereo unspecified) [VIRIDITOXIN]: the result in assay [1] was Active. Also, the outcome in [3] and in assay [6] was inactive. The same compound had an MIC in assay [7] of 0.63 µM (≈ 0.417 µg/mL).
`CO/N=C(\C(=O)N[C@@H]1C(=O)N2C(C(=O)O)=C(COC(N)=O)CS[C@H]12)c1ccco1` [CEFUROXIME]: the result in assay [1] and in assay [5] was inactive. Moreover, the Ratio in assay [12] worked out at 0.306. For the same compound, in [7], inhibition of growth (MIC) required 20 µM (≈ 8.49 µg/mL).
Consider `O=C/C=C/c1ccccc1` [CINNAMALDEHYDE], for which the outcome in assay [1], in assay [5] and in [6] was Active. Further, the result in assay [3] was inactive. This compound also returned an MIC in [7] of 2500 µM (≈ 330 µg/mL).
Regarding `NC(=O)c1c(F)ccc(OCc2nc3cc(Cl)cnc3s2)c1F`, the result in assay [1], in assay [5] and in [6] was inactive. In assay [7], this compound yielded an MIC of 2.5 µM (≈ 0.889 µg/mL).
